Test results reported in publication PMC4603696, “Discovery and characterization of novel small-molecule inhibitors targeting nicotinamide phosphoribosyltransferase” (Scientific Reports, 2015).
Read-outs that look alike come from different tables or passages of the source.

Experiments:
[1] = test system: NAD level of HepG2 cells; test: Cellular NAD level, spectrophotometric enzymatic cycling assay; type: cell-based, human; details: HepG2, even at 100 μM, 24 hours
From the text: F0 was the average d fluo rescen ce of si x backgr ound control s, repres ent ing zero activ ity from a si mul ated enz ym e reaction wit h on ly NAMP T but no NAM and com pound; F100 % was the average d fluorescen ce of si x ref erence cont rols, repr ese nt ing 100% activ ity from int act enz ym e reaction w ithou t com pound p ert ur bation.
Compounds with Activ ity% less tha n 40% were consi dered as inhi bi tor s and subj ect ed to a secondary screen inhi bition valida tion, in whi ch anot her backgr oun d cont rol (FC0), a si mul ated enz ym e reaction with NAMP Tand com pound but no NAM, was int roduced to elimina te the di rec t and /or ind irect inf lue nc e fro m compou nd. At thi s st age , the Activ ity% was cal culated accor ding t o e qua tion ( 2) :
In the screeni ng, the si gna l-to- noi se (S/N) rat io was cal cul ated usi ng the equa tion: (Mean signal -Mean backgr oun d) / SD backgr oun d4. Coe fficient s of vari atio n (CV) were the ratio of SD to mean. The Z ’f act or w as de term ine d by e qua tion (3) 5:
Z' −= (3)1−3(S Dhi ghsigna l+SDlowsigna l)
Mean hi gh signa l Meanlow signa l
Determ inat ion of IC50 for NAMPT inhi bitor s […]
vari ous con cent ration s were adde d int o 96-well pl ate. The pl ate was inc uba ted at 37 °C for 5 min after addition of 16.5 μl react ion buf fer cont aini ng N AMP T. The enz ym e reactions were ini tiated by 4.5 μl NAM (1.1 1 μM) follow ing NMN measurem ent as de scri bed above . […]
Cellul ar level of NAD was measured by spe ctrophot om etric enz ym atic cyc ling assa y, as de scri bed pr evi ousl y6-8. […]
Cell vi ability was de termine d by ou r previ ous method9 usi ng the Cell Counting Kit-8 (CCK -8, Dojindo, Ja pa n). […] Th e absor banc e at 450 nm (A450) was de tected by a pl ate reade r. […]
Briefly, cel ls were se ede d int o 96-well pl ates, cul tur ed overni ght , and trea ted with correspond ing com poun ds for 72 h. […] Sul for hoda mine B in the cells was di sso lved in 10 mmol/L Tris-HCl and was measured at 515 nm usi ng a multiw ell spect ropho tometer […]

[2] = biological target: T1, NAMPT (Homo sapiens, UniProt P43490); test: NAMPT activity assay by fluorescence of NMN derivative (HTS system), IC50 determination; type: biochemical; design: His-tag; made in house; host or cells: E. coli BL21-CodonPlus (DE3)-RIL
[3] = test system: HepG2 cells; test: Cell counting kit-8 (CCK-8) cell viability assay in HepG2; type: cell-based, human; details: HepG2, 48 hours treatment, read-out: CCK-8 assay in HepG2: IC50
Protocol: (§1) Cellc ount ing k it-8 (CCK-8) assa y
Cell vi ability was de termine d by ou r previ ous method9 usi ng the Cell Counting Kit-8 (CCK -8, Dojindo, Ja pa n). In hu man he pa tocellu lar carcinom a cell line HepG 2, cells were seede d in 96-well plate and starve d for ove r 12 h with se rum-free DMEM at 60~ 70% conf lue nc y, the n trea ted wit h com pounds or ve hicle for 24 h to 72 h accor ding to expe riment requi rement s. […]
(§2) 10 μl CCK-8 sol ution was adde d to the cul ture medium and inc ub ated at 37 °C for 1 h. Th e absor banc e at 450 nm (A450) was de tected by a pl ate reade r. Each e xperi ment w as carr ied out i n t riplic ate i n thr ee r eplic ate w ells.

[4] = test system: HepG2 cells; test: Sulforhodamine B protein staining (SRB) assay in HepG2; type: cell-based, human; details: Homo sapiens
Protocol: (§3) Sulfor hod am ine B p rotei n st ai ning (SRB) assay
(§4) Cell pr oliferat ion was eva lua ted by sul for hod amine B pr ot ein st aini ng (SRB) assa y10-12.
(§5) Briefly, cel ls were se ede d int o 96-well pl ates, cul tur ed overni ght , and trea ted with correspond ing com poun ds for 72 h. Cells were the n fixe d with 10% trichl or oa cetic aci d and st ained with sul for hoda mine B (Sigm a). Sul for hoda mine B in the cells was di sso lved in 10 mmol/L Tris-HCl and was measured at 515 nm usi ng a multiw ell spect ropho tometer (VERSA max, Mol ecul ar Devi ces, Sunnyva le, CA). The inhi bi tion rat e on cell pr olif eratio n was cal culated for each well as (A515contr ol cells-A 515tr eated cells)/A515contr ol cells×100 % (A515:
(§6) OD va lue at 515 nm ). The averag e IC50 va lue s were de termine d by Logit method from at leas t t hr eei nde pe nde nt test s.

[5] = test system: A549 cells; test: SRB assay in A549; type: cell-based, human; details: Homo sapiens; A549, SRB, 10-fold concentration gradient; read-out: anti-proliferation IC50, initial screen
Protocol: as §3, §4, §5, §6

[6] = test system: HCT116 cells; test: SRB assay in HCT116; type: cell-based; details: Homo sapiens, HCT-116; HCT116, SRB, 10-fold concentration gradient; read-out: anti-proliferation IC50, initial screen
Protocol: as §3, §4, §5, §6

[7] = test system: Huh7-C cells; test: CCK-8 assay in stem-like human hepatoma cell line Huh7-C; type: cell-based; details: Huh7-C, treated 60 h, read-out: CCK-8 assay in Huh7-C: IC50
Protocol: as §1
Cell vi ability was de termine d by ou r previ ous method9 usi ng the Cell Counting Kit-8 (CCK -8, […]
as §2

[8] = biological target: T2, NAMPT H191A mutant (Homo sapiens, UniProt P43490, H191A); test: NAMPT activity assay, H191A mutant; type: biochemical; details: for IC50: same condition as wild-type, read-out: IC50 against H191A mutant
T2 construct: His-tag; made in house; host or cells: E. coli BL21-CodonPlus (DE3)-RIL

[9] = biological target: T3, NAMPT A244S mutant (Homo sapiens, UniProt P43490, A244S); test: NAMPT activity assay, A244S mutant; type: biochemical; details: for IC50: same condition as wild-type, read-out: IC50 against A244S mutant
T3 construct: His-tag; made in house; host or cells: E. coli BL21-CodonPlus (DE3)-RIL

[10] = biological target: T4, NAMPT I309Y mutant (Homo sapiens, UniProt P43490, I309Y); test: NAMPT activity assay, I309Y mutant; type: biochemical; details: for IC50: same condition as wild-type, read-out: IC50 against I309Y mutant
T4 construct: His-tag; made in house; host or cells: E. coli BL21-CodonPlus (DE3)-RIL

[11] = biological target: T1, NAMPT; test: Cellular thermal shift assay (CETSA / […]) in HepG2 cell lysate; type: binding; design: endogenous in cells; host or cells: HepG2; details: HepG2 cell lysate, 100 μM
[12] = biological target: T1, NAMPT; test: Cellular thermal shift assay (CETSA / […]) in intact HepG2 cells; type: cell-based; design: endogenous in cells; host or cells: HepG2; details: for CETSA target binding of NAMPT in intact cell: intact HepG2 cells, 10 μM, 3 h
[13] = biological target: T1, NAMPT; design: His-tag; made in house; host or cells: E. coli BL21-CodonPlus (DE3)-RIL; details: previous study of the authors ref 7; read-out: NAMPT inhibition activity IC50; cited from earlier work
[14] = HepG2, 72 h, HepG2, second test, 2-fold concentration gradient, 72 hours, read-out: SRB assay in HepG2: IC50
[15] = HepG2, HepG2, SRB, 10-fold concentration gradient, read-out: anti-proliferation IC50, initial screen
[16] = recombinant human NAMPT, mean ± s.e., read-out: NAMPT IC50
[17] = wild type, run beside the mutants, read-out: IC50 against wild-type NAMPT (mutagenesis study)

T2 sequence (P43490 whole entry H191A): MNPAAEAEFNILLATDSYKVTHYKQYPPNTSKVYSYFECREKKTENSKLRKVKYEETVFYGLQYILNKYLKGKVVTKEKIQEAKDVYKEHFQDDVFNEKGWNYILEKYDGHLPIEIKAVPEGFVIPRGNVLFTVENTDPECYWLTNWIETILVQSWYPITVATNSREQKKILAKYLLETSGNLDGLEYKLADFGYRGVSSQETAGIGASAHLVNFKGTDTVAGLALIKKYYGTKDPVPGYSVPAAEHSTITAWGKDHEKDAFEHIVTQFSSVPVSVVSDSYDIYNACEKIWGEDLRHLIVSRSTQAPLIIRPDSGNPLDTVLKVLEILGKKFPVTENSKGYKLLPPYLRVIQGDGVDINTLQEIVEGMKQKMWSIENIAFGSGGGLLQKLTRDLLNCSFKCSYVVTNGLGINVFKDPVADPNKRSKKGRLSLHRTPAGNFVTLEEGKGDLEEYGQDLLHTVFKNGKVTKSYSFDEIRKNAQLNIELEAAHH
T1 sequence (P43490 whole entry): as the sequence (P43490 whole entry H191A) above, with A191H counted along it
T4 sequence (P43490 whole entry I309Y): as the sequence (P43490 whole entry H191A) above, with A191H, I309Y counted along it
T3 sequence (P43490 whole entry A244S): as the sequence (P43490 whole entry H191A) above, with A191H, A244S counted along it

IC50 ([3]; Homo sapiens, HepG2, 48 h) | IC50 [4, 14] | IC50 [4, 15] | IC50 [5] | IC50 [6] | IC50 [7] | change in IC50 versus wild-type NAMPT, H191A [8] | IC50 [8] | change in IC50/potency versus wild-type NAMPT, A244S [9] | IC50 [9] | change in IC50/potency versus wild-type NAMPT, I309Y [10] | IC50 [10] | CETSA melting curve shift of NAMPT in cell lysate [11] | CETSA target binding of NAMPT in intact cell [12] | IC50 [2, 16] | SMILES | IC50 [2, 17] | also measured
 |  |  |  |  |  |  |  |  |  |  |  |  |  |  | O=S(=O)(c1ccc(NC(=S)NCc2ccncc2)cc1)N1CCCCC1 [compound 733, reference compound] |  | effect on cellular NAD level (in words) [1]: did not show any effect; inhibition on NAMPT activity (in words) [2]: no inhibition
615 ± 42.4 nM | ~3000 nM | < 5000 nM | < 5000 nM | < 5000 nM | 514 ± 83.3 nM | no change | 25.2 ± 2.42 nM | 2 to 3 fold | 37.7 ± 1.9 nM | 2 to 3 fold | 57.6 ± 3.71 nM | obvious right shifts | directly bound with NAMPT | 23.7 ± 7.8 nM | O=S(=O)(c1ccc(NC(=S)NCc2cccnc2)cc1)N1CCN(Cc2ccc(C(F)(F)F)cc2)CC1 [MS34] | 24.8 ± 1.87 nM | 
 |  |  |  |  |  |  |  |  |  |  |  |  |  |  | O=C(OC[C@H]1O[C@@H](OC(=O)c2cc(O)c(O)c(OC(=O)c3cc(O)c(O)c(O)c3)c2)[C@H](OC(=O)c2cc(O)c(O)c(OC(=O)c3cc(O)c(O)c(O)c3)c2)[C@@H](OC(=O)c2cc(O)c(O)c(OC(=O)c3cc(O)c(O)c(O)c3)c2)[C@@H]1OC(=O)c1cc(O)c(O)c(OC(=O)c2cc(O)c(O)c(O)c2)c1)c1cc(O)c(O)c(OC(=O)c2cc(O)c(O)c(O)c2)c1 [gallotannin] |  | IC50 [13]: 1300 ± 100 nM
326 ± 73.3 nM | ~3000 nM | < 5000 nM | < 5000 nM | < 5000 nM | 308 ± 32.2 nM | no change | 25.3 ± 2.36 nM | 2 to 3 fold | 36.1 ± 4.11 nM | 2 to 3 fold | 58.3 ± 2.3 nM | obvious right shifts | directly bound with NAMPT | 21.7 nM | CC(C)(C)OC(=O)N1CCN(S(=O)(=O)c2ccc(NC(=S)NCc3cccnc3)cc2)CC1 [MS1] | 24.6 ± 2.65 nM | IC50 [3]: 326 nM; ITDRFCETSA of NAMPT in cell lysate versus intact cells ([12]; 62 °C, lysate value relative to intact cells): approximately 100 fold
